The text below walks through data of PubChem BioAssay (NCI).

Some test systems named below: DMS 273 small cell lung; M19-MEL melanoma; DLD-1 colon; DMS 114 small cell lung; XF 498 CNS; SNB-78 CNS; KM20L2 colon; HOP-18 NSCLC; RXF-631 renal.
Common to all, as to experiment: inhibition of tumour cell growth, NCI panel, 48 h

SMILES strings stand for the structures.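 Cultured in 96-well plates, cells were exposed to test compound for 48 hours across five concentrations. TGI: concentration producing complete growth inhibition.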

As for `Cn1ccc2c(C(=O)c3ccccc3)cccc2c1=O`, the TGI in the assay with DMS 273 small cell lung, in the assay on M19-MEL melanoma, in the assay on DLD-1 colon, in the assay with DMS 114 small cell lung and with XF 498 CNS was over 100 µM throughout.
For `O=C1C2C=CC(C2)C(c2ccc(O)cc2)N1O` (stereo unspecified), the TGI in the assay with M19-MEL melanoma, with DLD-1 colon, in the assay on SNB-78 CNS, with KM20L2 colon and with XF 498 CNS was over 100 µM each time.
In the case of `CN(C)CC1CCCC(CN(C)C)C1=NOC(=O)c1ccccc1` (stereo unspecified), the TGI in the assay with DMS 273 small cell lung, with HOP-18 NSCLC, in the assay on M19-MEL melanoma, in the assay with DLD-1 colon, in the assay with SNB-78 CNS and with KM20L2 colon was over 100 µM in each case. For the same compound, the TGI in the assay on DMS 114 small cell lung and in the assay on XF 498 CNS was over 100 µM throughout.
As to `CCCC/C=C1\CCC(C)(CN(C)C)C1=O` (stereo unspecified), the TGI in the assay on HOP-18 NSCLC was over 100 µM; in the assay on M19-MEL melanoma, 29 µM; with SNB-78 CNS it was over 100 µM; with KM20L2 colon it was over 100 µM; in the assay with DMS 114 small cell lung it was over 100 µM.
On to `CCOC(=O)/C(=C\c1cccs1)P(=O)(OCC)OCC`, for which the TGI in the assay with DMS 273 small cell lung was over 100 µM; in the assay with HOP-18 NSCLC, over 100 µM; in the assay with M19-MEL melanoma, 45 µM; in the assay on RXF-631 renal it was over 100 µM; with DLD-1 colon, 60.6 µM; in the assay on SNB-78 CNS, over 100 µM. The results for the TGI in the assay on KM20L2 colon and with DMS 114 small cell lung were 49.7 µM and 51.7 µM, respectively.
With `CC(C)(CN1CCCCC1)C(=O)/C=C/c1ccc(Cl)cc1`, the TGI in the assay with DMS 273 small cell lung came out at 13.3 µM; in the assay on HOP-18 NSCLC it was 23.1 µM; with M19-MEL melanoma, 23.4 µM; in the assay with RXF-631 renal, 29.9 µM; with DLD-1 colon, 22.9 µM; in the assay on SNB-78 CNS, 11.8 µM. For the same compound, the TGI with KM20L2 colon turned out to be 7.48 µM; in the assay with DMS 114 small cell lung it was 15.4 µM.
For the compound `COC(=O)[C@]12CC=C3O[C@@H]4OC5(CCCCC5)O[C@@H]4C3[C@@H]1C(=O)CCC2=O` (stereo partly specified), the TGI with DMS 273 small cell lung, in the assay on HOP-18 NSCLC, in the assay with RXF-631 renal, with DLD-1 colon, in the assay with SNB-78 CNS and in the assay on KM20L2 colon was over 100 µM throughout. Moreover, the TGI in the assay with DMS 114 small cell lung and in the assay on XF 498 CNS was over 100 µM each time.
Consider `CC(C)C(Sc1nc(-c2ccccc2)c(-c2ccccc2)[nH]1)C(=O)NN` (stereo unspecified), for which the TGI with DMS 273 small cell lung, in the assay on M19-MEL melanoma, with DLD-1 colon, with SNB-78 CNS, in the assay with KM20L2 colon and in the assay on DMS 114 small cell lung was over 100 µM throughout. Besides, in the assay with XF 498 CNS, the TGI is over 100 µM.
For the compound `COc1cc2c(cc1OC)[C@H]1C(COC(=O)c3ccccc3)CSC(=Nc3ccccc3)N1CC2` (stereo partly specified), the TGI in the assay with DMS 273 small cell lung, in the assay on HOP-18 NSCLC, in the assay on M19-MEL melanoma, with DLD-1 colon, with SNB-78 CNS and with KM20L2 colon was over 100 µM throughout. Further, the TGI in the assay on DMS 114 small cell lung and in the assay with XF 498 CNS was over 100 µM throughout.
Take `O=C(O)CCc1cccc2c1oc1c(CCC(=O)O)cccc12`: the TGI with DMS 273 small cell lung, with HOP-18 NSCLC, in the assay with M19-MEL melanoma, in the assay with DLD-1 colon, in the assay with SNB-78 CNS and in the assay on KM20L2 colon was over 100 µM each time. In addition, the TGI in the assay on DMS 114 small cell lung and in the assay with XF 498 CNS was over 100 µM each time.
With `O=C(NCCCCCCNC(=O)OCCSCCn1cc(C(=O)NC(=O)OCc2ccccc2)c(=O)[nH]c1=O)OCCSCCn1cc(C(=O)NC(=O)OCc2ccccc2)c(=O)[nH]c1=O`, the TGI in the assay on DMS 273 small cell lung, in the assay with M19-MEL melanoma, with RXF-631 renal, with DLD-1 colon, in the assay with SNB-78 CNS and in the assay with KM20L2 colon was over 100 µM in each case. Moreover, the TGI with DMS 114 small cell lung and with XF 498 CNS was over 100 µM throughout.
On to `CC(=O)C(CN(Cc1ccccc1)Cc1ccccc1)C(c1ccccc1)c1c(O)c2ccccc2oc1=O` (stereo unspecified), for which the TGI in the assay with M19-MEL melanoma, in the assay on RXF-631 renal, with DLD-1 colon, with SNB-78 CNS, in the assay with KM20L2 colon and in the assay on XF 498 CNS was over 100 µM throughout.
With `NC(CCC(=O)NC(CSC(=O)N(O)c1ccccc1)C(=O)NCC(=O)O)C(=O)O` (stereo unspecified), the TGI in the assay on DMS 273 small cell lung, with M19-MEL melanoma, in the assay with DLD-1 colon, with SNB-78 CNS, in the assay with KM20L2 colon and with DMS 114 small cell lung was over 1000 µM each time.
Regarding `COc1cc(C(O)C(=O)c2nc3ccc([N+](=O)[O-])cc3[nH]c2=O)ccc1O` (stereo unspecified), the TGI in the assay with DMS 273 small cell lung, in the assay with M19-MEL melanoma, in the assay on DLD-1 colon, with SNB-78 CNS, in the assay on KM20L2 colon and in the assay on DMS 114 small cell lung was over 100 µM throughout. Also, in the assay on XF 498 CNS, the TGI was over 100 µM.
Regarding `COC(=O)NN=C1C(C)(C)C(=O)C1(C)C`, the TGI in the assay on DMS 273 small cell lung, in the assay on RXF-631 renal, with DLD-1 colon, in the assay with SNB-78 CNS, in the assay with KM20L2 colon and in the assay on XF 498 CNS was over 100 µM each time.
For `CSc1sc(=S)sc1C(=O)N(C)c1ccccc1`, the TGI with DMS 273 small cell lung, in the assay with M19-MEL melanoma, with SNB-78 CNS, in the assay on KM20L2 colon, with DMS 114 small cell lung and with XF 498 CNS was over 100 µM throughout.
As for `CCCCCCCCCCCCCCCCOCC(CP(=O)([O-])OCC[n+]1ccccc1)OC` (stereo unspecified), the TGI is 5.63 µM in the assay with DMS 273 small cell lung; 25.2 µM in the assay with M19-MEL melanoma; 28.9 µM in the assay with RXF-631 renal; 11.1 µM in the assay on DLD-1 colon; 31.1 µM with SNB-78 CNS; 26.5 µM with DMS 114 small cell lung. For the same compound, the TGI in the assay on XF 498 CNS was 24.7 µM.
With `O=c1nc(NC(c2ccccc2)(c2ccccc2)c2ccccc2)ccn1CCNCCn1ccc(NC(c2ccccc2)(c2ccccc2)c2ccccc2)nc1=O`, the TGI with DMS 273 small cell lung was 21.6 µM; in the assay with HOP-18 NSCLC it was 43.8 µM; in the assay on M19-MEL melanoma it was 21 µM; in the assay with DLD-1 colon it was over 100 µM; in the assay with KM20L2 colon, 30.1 µM; in the assay on DMS 114 small cell lung it was 13.5 µM. Also, in the assay with XF 498 CNS, the TGI was 31.9 µM.
For `CC(O)c1ccc[n+](Cc2ccccc2)c1` (stereo unspecified), the TGI in the assay with DMS 273 small cell lung, in the assay on HOP-18 NSCLC, in the assay on M19-MEL melanoma, in the assay on RXF-631 renal, in the assay with DLD-1 colon and with KM20L2 colon was over 400 µM in each case. In addition, the TGI in the assay on DMS 114 small cell lung and in the assay with XF 498 CNS was over 400 µM each time.
Consider `CCCCN(Cc1ccccc1)C(=NC#N)N(Cc1ccccc1)Cc1ccccc1`, for which the TGI in the assay with DMS 273 small cell lung was 43.6 µM; in the assay on M19-MEL melanoma, 62.6 µM; in the assay on DLD-1 colon, over 100 µM; with SNB-78 CNS it was over 100 µM; with KM20L2 colon it was 95.6 µM.
In the case of `Cn1c(Cl)cn2c3nc4ccccc4nc3c(=O)c(C#N)c12`, the TGI in the assay with DMS 273 small cell lung, in the assay on HOP-18 NSCLC, with M19-MEL melanoma, with DLD-1 colon, in the assay on SNB-78 CNS and in the assay with DMS 114 small cell lung was over 100 µM each time. In the assay on XF 498 CNS, this compound showed a TGI of over 100 µM.
On to `O=C(O)CCC(NC(=O)c1ccccc1)C(=O)O` (stereo unspecified), for which the TGI in the assay on DMS 273 small cell lung, in the assay on HOP-18 NSCLC, with RXF-631 renal, with DLD-1 colon, in the assay on SNB-78 CNS and in the assay on KM20L2 colon was over 100 µM in each case. Also, the TGI in the assay on DMS 114 small cell lung and in the assay on XF 498 CNS was over 100 µM each time.
